Values after ≈ are worked out from the molar mass of the structure shown. Where two headings read alike, the source gives them in different places.
What was measured:
[1] = target: HUSpm (Spiroplasma melliferum, UniProt A0ABX5UAT3); assay: biochemical; format: binding
Procedure: In silico screening by molecular docking and filtering was performed to identify compounds interacting with the core region of the DNA-binding saddle-like domain of HU proteins (Fig. 1A) previously characterized in[35]. High-resolution spatial structure of HUSpm (PDB ID 5L8Z[9]) was chosen as a target for virtual screening of one million compounds from the Vitas-M laboratory library collection (https://vitasmlab.biz/). The screening (see "Methods" for a description) identified a set of five compounds (Supplementary Table S1), further evaluation of which was carried out by an electromobility shift assay (EMSA) performed as described in[5]. In the assay, formation of DNA–protein complexes retards migration of dye-labeled DNA-duplexes during non-denaturing PAGE that gives a shifted fluorescent band. The presence of an inhibitor prevents complex formation and corresponding band shifting.
All oligonucleotides were synthesized by Evrogen (Moscow, Russia).
For 48 bp DNA duplexes, 8% PAAG was used.

[2] = target: HUMgal (Mycoplasmoides gallisepticum, UniProt A0A0F6CKR5); assay: EMSA, inhibition of HUMgal DNA binding; parameters: species or system Mycoplasma gallisepticum
HUMgal, sequence (A0A0F6CKR5 entry or part of it): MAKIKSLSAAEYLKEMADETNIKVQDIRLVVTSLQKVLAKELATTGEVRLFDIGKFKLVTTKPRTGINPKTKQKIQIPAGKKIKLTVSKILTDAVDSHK
Procedure: (§3) One protein was from mycoplasma M. gallisepticum (HUMgal) and another was HUα-homodimer from E. coli (HUEc). […] To assess the effect of the three BDFs on DNA binding properties of the three HU proteins, increasing concentrations of inhibitors were mixed with preset DNA–protein complexes and EMSA was performed and quantified as described in the Methods.
(§4) Binding of HU proteins to DNA was analyzed by electrophoretic mobility shift assays (EMSA) performed as described previously[5]. Different amounts of the HU proteins (30 nM HUSpm and HUSpm_K35T, 60 nM HUMgal and HUEc, 100 nM HUSpm_K80A and HUSpm_K88A, and 200 mM HUSpm_R57A) were incubated with DNA (10 nM) in 10 μl of the binding buffer (20 mM Tris–HCl pH 8.0, 7% glycerol, and 150 mM of NaCl) for 10 min. Then, the samples were loaded to pre-runned (125 V, 30 min) 10% non-denaturing PAAG, buffered with 100 mM Tris–borate, and electrophoretically separated (125 V, 90 min). […] Gels were visualized using BIO RAD Faros FX Molecular Imager (532 nm EX, 605 nm BP), and quantification was performed using Quantity One software.
(§5) To evaluate the effects of inhibitors, 1 μl volumes of serial dilutions of tested compounds or DMSO were added to the preformed protein-DNA complexes. After five minute incubation, the assay was carried out as described above. Inhibition curves and IC50 values were obtained using GraphPad Prism 5 software.

[3] = tested on: HUSpm mutants (F14A, F29A, F31A); assay: EMSA, inhibitor evaluation on HUSpm mutants F14A, F29A, F31A; format: binding, Spiroplasma melliferum; details: data not shown
[4] = tested on: M. gallisepticum S6; assay: Broth micro-dilution test, MIC; format: cell-based, Mycoplasma gallisepticum; details: M. gallisepticum growth in culture, phenol red colour change, three determinations
Source text: (§1) Since HU proteins are known to be essential for mycoplasma cell viability, [32], we assessed the effects of the inhibitors on M. gallisepticum and S. melliferum growth in culture. […] The growth of metabolizing organisms causes a change in the pH of the medium leading to a visible color change due to the presence of phenol red in the medium. When the growth of bacteria is inhibited, color change is not observed. The MIC is the lowest inhibitor concentration that prevents the color change at the time when the color change has developed in control (untreated) samples.
(§2) The S. melliferum KC3 strain was kindly provided by Prof. G. Wroblewsky of the University of Rennes, France. The M. gallisepticum S6 strain was provided by Prof. S. N. Borkhsenius, Institute of Cytology, St. Petersburg, Russian Academy of Science. The bacteria were cultivated as described in[62] without any specific aeration in covered flasks, for less than five passage. M. gallisepticum S6 was cultivated in a modified Edward’s liquid medium (tryptose (20 g/l), Tris (3 g/l), NaCl (5 g/l), KCl (1.3 g/l), yeast dialysate (5%), heat inactivated (56 °C–30 min) horse serum (6%), glucose (0.5%) and penicillin 300U/ml, pH 7.5) at 37 °C for 20 h after 1:100 dilution. […]

[5] = tested on: S. melliferum KC3; assay: Broth micro-dilution test, MIC; format: cell-based, Spiroplasma melliferum; details: S. melliferum growth in culture, phenol red colour change, three determinations
Source text: as §1, §2

[6] = Solubility (stated in words); format: physicochemical; details: water
[7] = target: HUSpm_R57A (Spiroplasma melliferum, UniProt A0ABX5UAT3, R57A); details: read-out: IC50 against HUSpm mutant HUSpm_R57A; EMSA with DS24a; mean ± SD from three runs; 200 mM HUSpm_R57A as printed
Procedure: (§6) Binding of HU proteins to DNA was analyzed by electrophoretic mobility shift assays (EMSA) performed as described previously[5]. Different amounts of the HU proteins (30 nM HUSpm and HUSpm_K35T, 60 nM HUMgal and HUEc, 100 nM HUSpm_K80A and HUSpm_K88A, and 200 mM HUSpm_R57A) were incubated with DNA (10 nM) in 10 μl of the binding buffer (20 mM Tris–HCl pH 8.0, 7% glycerol, and 150 mM of NaCl) for 10 min. Then, the samples were loaded to pre-runned (125 V, 30 min) 10% non-denaturing PAAG, buffered with 100 mM Tris–borate, and electrophoretically separated (125 V, 90 min). […] Gels were visualized using BIO RAD Faros FX Molecular Imager (532 nm EX, 605 nm BP), and quantification was performed using Quantity One software. The dissociation constants (Kd) were calculated as described earlier[16].
as §5

[8] = target: HUSpm_K80A (Spiroplasma melliferum, UniProt A0ABX5UAT3, K80A); details: read-out: IC50 against HUSpm mutant HUSpm_K80A; EMSA with DS24a; mean ± SD from three runs; 100 nM protein
Procedure: as §6, §5

[9] = target: HUSpm_K88A (Spiroplasma melliferum, UniProt A0ABX5UAT3, K88A); details: read-out: IC50 against HUSpm mutant HUSpm_R88A (so in the source); EMSA with DS24a; mean ± SD from three runs; 100 nM protein
Procedure: as §6, §5

[10] = target: HUSpm_K35T (Spiroplasma melliferum, UniProt A0ABX5UAT3, K35T)
Procedure: Thus, previously obtained HUSpm mutants (F14A, F29A, F31A and K35T) were employed for inhibitor evaluation.
as §6, §5

[11] = target: T1, HUEc (HUα-homodimer from E. coli) (Escherichia coli, UniProt P0ACF0); assay: biochemical; format: binding
T1 construct: made in house
T1 sequence (P0ACF0 whole entry): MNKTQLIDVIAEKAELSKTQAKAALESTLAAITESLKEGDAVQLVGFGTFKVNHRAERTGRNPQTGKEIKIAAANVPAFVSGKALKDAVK
Procedure: as §3, §4, §5

[12] = tested on: HUSpm (Spiroplasma melliferum), PDB:5L8Z_1; assay: EMSA; details: EMSA: 20 mM Tris-HCl pH 8.0, 150 mM NaCl, 7% glycerol, 10 nM DNA, 10 min, temperature not stated; NMR: 50 mM sodium phosphate pH 7.2, 0.1 mM NaN3, 30 C
[13] = EMSA with DS24a duplex, average±SD from three runs, read-out: IC50, half-maximal inhibitory concentration of HUSpm-DNA complex formation
[14] = EMSA with DS24a, average ± SD from three runs, read-out: IC50, inhibition of HUMgal DNA-binding
[15] = EMSA with DS48 duplex, average±SD, n=3, read-out: IC50, half-maximal inhibitory concentration of HUSpm-DNA complex formation

Molecule: 4,5'-[4,4'-(9H-fluorene-9,9-diyl)bis(4,1-phenylene)]-bis(oxy)-bis(oxomethylene)-bis[2-(m-tolylcarbamoyl)-benzoic acid] [BDF5]
- IC50 [1, 13]: 6.3 ± 0.7 µM
- IC50 [2, 14]: 5.9 ± 0.8 µM

Molecule: O=C(Oc1ccc(C2(c3ccc(OC(=O)c4ccc(C(=O)O)c(C(=O)O)c4)cc3)c3ccccc3-c3ccccc32)cc1)c1ccc(C(=O)O)c(C(=O)O)c1 [BDF1]
- Inhibition of HUSpm-DNA binding, first round of EMSA ([1]; 100 μM compound, DS48): inhibits HUSpm-DNA binding
- IC50 [1, 13]: 6.2 ± 0.5 µM
- IC50 [1, 15]: 6.5 ± 0.9 µM

Molecule: O=C(Oc1ccc(C2(c3ccc(OC(=O)c4ccc(C(=O)O)c(C(=O)O)c4)cc3)c3ccccc3-c3ccccc32)cc1)c1ccc(C(=O)O)c(C(=O)O)c1 [BDF4, 4,4'-[4,4'-(9H-fluorene-9,9-diyl)-bis(4,1-phenylene)]-bis(oxy)-bis(oxomethylene)diphthalic acid]
- IC50 ([1]; read-out: IC50, half-maximal inhibitory concentration of HUSpm-DNA complex formation, EMSA with DS24a duplex, average±SD from three runs): 5.6 ± 0.8 µM
- IC50 [2, 14]: 5 ± 0.6 µM
- Effect of other mutations (F14A, F29A, F31A) on sensitivity to inhibitor [3]: did not cause any significant effects
- MIC ([4]; Mycoplasmoides gallisepticum, S6, read-out: MIC, minimal inhibitory concentration): 40 to 70 µM (≈ 29.4 to 51.4 µg/mL)
- MIC ([5]; Spiroplasma melliferum, KC3, read-out: MIC, minimal inhibitory concentration): 40 to 70 µM (≈ 29.4 to 51.4 µg/mL)
- Solubility [6]: water solubility
- IC50 [7]: 6.3 ± 1 µM
- IC50 [8]: 5.9 ± 0.9 µM
- IC50 [9]: 6.3 ± 1.2 µM
- Decrease of the IC50 value as compared to wild type HUSpm ([10]; HUSpm_K35T vs wild type, DS24a): about threefold decrease
- IC50 ([10]; read-out: IC50 against HUSpm mutant HUSpm_K35T, EMSA with DS24a, mean ± SD from three runs, 30 nM protein): 1.8 ± 0.3 µM

Molecule: O=C(O)c1cccc(C(=O)Oc2ccc(C3(c4ccc(OC(=O)c5cccc(C(=O)O)c5)cc4)c4ccccc4-c4ccccc43)cc2)c1 [BDF6, 3.3′-[4.4′-(9H-fluorene-9.9-diyl)-bis(4.1-phenylene)]-bis(oxy)-bis(oxomethylene)-dibenzoic acid]
- IC50 ([1]; IC50, half-maximal inhibitory concentration of HUSpm-DNA complex formation, EMSA with DS24a duplex, average±SD from three runs): 8.2 ± 1.1 µM
- IC50 ([1]; IC50 given in figure, HUSpm-DNA binding, DS24a, representative result of one independent assay): 8.7 µM
- IC50 ([2]; DS24a, representative result of one independent assay, read-out: IC50 given in figure, HUMgal DNA binding): 8.2 µM
- IC50 [2, 14]: 8.1 ± 1 µM
- IC50 ([11]; IC50, inhibition of HUEc DNA-binding, EMSA with DS24a, average ± SD from three runs): 10 ± 1.3 µM
- IC50 ([11]; IC50 given in figure, HUEc DNA binding, DS24a, representative result of one independent assay): 9.5 µM
- MIC, minimal inhibitory concentration [4]: worst MIC
- MIC, minimal inhibitory concentration [5]: worst MIC
- Solubility [6]: limited solubility

Molecule: CSCCC(NS(=O)(=O)c1ccc2c(c1)C(=O)c1cc(S(=O)(=O)NC(CCSC)C(=O)O)ccc1-2)C(=O)O (stereo not shown) [compound 3]
- IC50 [1, 15]: > 100 µM

Molecule: AGTCTAGAGTGCAAGTTGAGTCCTT / AAGGACTCAACTGCACTCTAGACT [DS24a (24a)]
- Kd [12]: 0.0026 µM

Molecule: AGTCTAGAGTGCAGTTGAGTCCTTGCTACGACGGATCCCTTAGGTCAG (double strand) [DS48 (48)]
- Kd [12]: 0.0186 µM

Molecule: AGTCTAGAGTGCAGTTGAGTCCTTGCTACGACGGATCCCTTAGGTCAG / AAGGACTCAACTGCACTCTAGACT / CTGACCTAAGGGATCCGTCGTAG [Nick (N)]
- Kd [12]: 0.0052 µM

Molecule: AGTCTAGAGTGCAGTTGAGTCCTTGCTACGACGGATCCCTTAGGTCAG / CTGACCTAAGGGATCCGTCGTAGCAAGAAAAAAAGACTCAACTGCACTCTAGACT [A7 bulge (A7)]
- Kd [12]: 0.002 µM

Molecule: AGTCTAGAGTGCAGTTGAGTCCTTGCTACGACGGATCCCTTAGGTCAG / CTGACCTAAGGGATCCGTCGTAGCAAGAGACTCAACTGCACTCTAGACT [A1 bulge (A1)]
- Kd [12]: 0.0025 µM

Source: article PMC7493962, “Structure-based inhibitors targeting the alpha-helical domain of the Spiroplasma melliferum histone-like HU protein” (Scientific Reports, 2020)
